From US8921362B2, “6,7-dialkoxy quinazoline derivatives and methods of treating drug resistant and other tumors” (Natco Pharma Limited, priority 2008, dated 2014)

Assays:
Assay in all cases: KinomeScan
Assay type in all cases: binding
Conditions in all cases: read-out: % Ctrl @ 10000 nM
MAPKAPK2 = biological target: T1, MAPKAPK2 (Homo sapiens, UniProt P49137)
T1 construct: host or cells: E. coli host derived from the BL21 strain, infected with T7 phage
Outline: (§1)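 Steps: grow kinase-tagged T7 phage in BL21-derived E. coli (MOI ~0.1, 32° C., to lysis); clear lysate; mix with blocked ligand beads and compound; elute; titer by qPCR.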

[1] = biological target: T2, JAK1(JH1domain-catalytic) (Homo sapiens, UniProt P23458)
T2 construct: JAK1(JH1domain-catalytic); host or cells: T7 phage grown in E. coli host derived from BL21
Outline: as §1

MKNK2 = biological target: T3, MKNK2 (Homo sapiens, UniProt Q9HBH9)
T3 construct: host or cells: T7 phage grown in E. coli host derived from BL21
Outline: as §1

FGFR3(G697C) = biological target: T4, FGFR3(G697C) (Homo sapiens, UniProt P22607, G697C)
T4 construct: host or cells: T7 phage in E. coli host derived from BL21
T4 sequence (P22607 23-806 G697C): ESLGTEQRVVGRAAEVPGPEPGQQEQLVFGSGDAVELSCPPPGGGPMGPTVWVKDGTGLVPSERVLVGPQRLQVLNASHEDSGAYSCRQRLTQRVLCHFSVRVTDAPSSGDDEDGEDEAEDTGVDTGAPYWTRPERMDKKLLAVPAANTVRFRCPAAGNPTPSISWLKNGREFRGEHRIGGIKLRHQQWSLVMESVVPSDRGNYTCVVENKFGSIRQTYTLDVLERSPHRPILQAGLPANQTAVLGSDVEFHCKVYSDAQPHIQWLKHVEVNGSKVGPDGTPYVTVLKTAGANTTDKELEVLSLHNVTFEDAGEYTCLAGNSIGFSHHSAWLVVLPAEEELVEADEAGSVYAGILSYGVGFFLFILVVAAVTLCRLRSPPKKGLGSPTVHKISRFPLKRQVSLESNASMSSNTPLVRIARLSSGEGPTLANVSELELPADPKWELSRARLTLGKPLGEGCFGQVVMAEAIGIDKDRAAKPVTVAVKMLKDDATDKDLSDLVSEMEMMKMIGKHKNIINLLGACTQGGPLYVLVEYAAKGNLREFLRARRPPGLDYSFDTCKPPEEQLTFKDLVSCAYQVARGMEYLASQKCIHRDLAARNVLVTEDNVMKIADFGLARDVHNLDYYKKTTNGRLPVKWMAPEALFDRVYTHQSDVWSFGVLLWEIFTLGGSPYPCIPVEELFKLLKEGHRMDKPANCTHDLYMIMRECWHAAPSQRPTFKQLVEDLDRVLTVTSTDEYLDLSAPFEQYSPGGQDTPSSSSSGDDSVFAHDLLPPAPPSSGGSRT
Outline: as §1

FER = biological target: T5, FER (Homo sapiens, UniProt P16591)
T5 construct: host or cells: T7 phage in E. coli host derived from BL21
Outline: as §1

VEGFR2 = biological target: T6, VEGFR2 (Homo sapiens, UniProt P35968)
T6 construct: host or cells: E. coli host derived from BL21, T7 phage
Outline: as §1

AKT3 = biological target: T7, AKT3 (Homo sapiens, UniProt Q9Y243)
T7 construct: host or cells: E. coli (BL21-derived), T7 phage lysate
Outline: as §1

p38-delta = biological target: T8, p38-delta (Homo sapiens, UniProt O15264)
T8 construct: host or cells: E. coli host derived from BL21, infected with T7 phage
T8 sequence (O15264 whole entry): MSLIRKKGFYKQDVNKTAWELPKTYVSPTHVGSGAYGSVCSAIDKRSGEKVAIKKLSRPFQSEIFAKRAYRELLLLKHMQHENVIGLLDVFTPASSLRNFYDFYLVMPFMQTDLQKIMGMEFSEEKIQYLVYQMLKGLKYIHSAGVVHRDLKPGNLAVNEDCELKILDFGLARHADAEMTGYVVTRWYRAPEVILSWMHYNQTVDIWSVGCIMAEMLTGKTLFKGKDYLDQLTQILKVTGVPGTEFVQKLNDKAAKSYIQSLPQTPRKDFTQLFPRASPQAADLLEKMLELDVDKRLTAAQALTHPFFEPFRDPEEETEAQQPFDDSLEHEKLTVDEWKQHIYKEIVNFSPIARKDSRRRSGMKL
Outline: as §1

TLK2 = biological target: T9, TLK2 (Homo sapiens, UniProt Q86UE8)
T9 construct: host or cells: E. coli host derived from BL21, T7 phage
Outline: as §1

SRPK2 = biological target: T10, SRPK2 (Homo sapiens, UniProt P78362)
T10 construct: host or cells: T7 phage grown in E. coli (BL21-derived)
Outline: as §1

PCTK2 = biological target: T11, PCTK2 (Homo sapiens, UniProt Q00537)
T11 construct: host or cells: E. coli host derived from BL21, infected with T7 phage
Outline: as §1

MYO3A = biological target: T12, MYO3A (Homo sapiens, UniProt Q8NEV4)
T12 construct: host or cells: T7 phage grown in E. coli host derived from BL21
Outline: as §1

PRKG2 = biological target: T13, PRKG2 (Homo sapiens, UniProt Q13237)
T13 construct: host or cells: T7 phage in E. coli host derived from BL21
T13 sequence (Q13237 whole entry): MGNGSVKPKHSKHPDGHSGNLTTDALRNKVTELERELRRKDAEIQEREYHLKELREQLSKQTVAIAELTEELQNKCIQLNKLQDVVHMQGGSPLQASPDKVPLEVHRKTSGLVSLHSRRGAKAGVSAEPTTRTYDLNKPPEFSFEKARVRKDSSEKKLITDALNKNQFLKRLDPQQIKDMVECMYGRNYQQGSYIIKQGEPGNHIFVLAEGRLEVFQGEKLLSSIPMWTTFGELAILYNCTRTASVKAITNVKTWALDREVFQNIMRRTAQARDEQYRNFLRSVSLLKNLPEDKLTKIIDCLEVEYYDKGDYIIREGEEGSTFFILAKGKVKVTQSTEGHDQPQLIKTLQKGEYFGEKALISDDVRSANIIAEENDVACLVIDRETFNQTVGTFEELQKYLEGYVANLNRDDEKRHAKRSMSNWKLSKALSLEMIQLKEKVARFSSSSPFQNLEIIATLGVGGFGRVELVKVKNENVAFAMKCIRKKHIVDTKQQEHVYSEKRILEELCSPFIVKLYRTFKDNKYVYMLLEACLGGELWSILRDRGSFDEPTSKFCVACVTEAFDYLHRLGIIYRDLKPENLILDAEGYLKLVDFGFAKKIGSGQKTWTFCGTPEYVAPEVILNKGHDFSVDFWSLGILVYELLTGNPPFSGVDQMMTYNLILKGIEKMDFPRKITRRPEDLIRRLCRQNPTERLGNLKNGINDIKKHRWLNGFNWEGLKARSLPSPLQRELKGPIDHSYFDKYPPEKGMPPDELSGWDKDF
Outline: as §1

GAK = biological target: T14, GAK (Homo sapiens, UniProt O14976)
T14 construct: host or cells: T7 phage in E. coli host derived from BL21
Outline: as §1

CAMK1G = biological target: T15, CAMK1G (Homo sapiens, UniProt Q96NX5)
T15 construct: host or cells: E. coli host derived from BL21
Outline: as §1

EGFR(S752-1759del) = biological target: T16, EGFR(S752-1759del) (Homo sapiens, UniProt P00533, DEL752-759)
T16 construct: purchased Ambit Biosciences Corp; host or cells: T7 phage in E. coli host derived from BL21
T16 sequence (P00533 with tags, fused parts or gaps DEL752-759 limits assumed): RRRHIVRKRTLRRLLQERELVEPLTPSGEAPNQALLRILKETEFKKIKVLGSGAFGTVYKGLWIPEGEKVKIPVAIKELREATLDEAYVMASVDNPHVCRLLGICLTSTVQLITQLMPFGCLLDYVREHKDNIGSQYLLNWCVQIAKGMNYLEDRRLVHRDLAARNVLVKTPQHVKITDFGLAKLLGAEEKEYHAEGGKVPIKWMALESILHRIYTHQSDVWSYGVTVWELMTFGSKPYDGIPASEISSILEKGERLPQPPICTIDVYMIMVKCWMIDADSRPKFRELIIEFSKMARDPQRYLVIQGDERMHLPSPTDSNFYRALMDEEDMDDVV
Outline: as §1

ACVR2A = biological target: T17, ACVR2A (Homo sapiens, UniProt P27037)
T17 construct: host or cells: E. coli (BL21-derived), T7 phage lysate
T17 sequence (P27037 20-513): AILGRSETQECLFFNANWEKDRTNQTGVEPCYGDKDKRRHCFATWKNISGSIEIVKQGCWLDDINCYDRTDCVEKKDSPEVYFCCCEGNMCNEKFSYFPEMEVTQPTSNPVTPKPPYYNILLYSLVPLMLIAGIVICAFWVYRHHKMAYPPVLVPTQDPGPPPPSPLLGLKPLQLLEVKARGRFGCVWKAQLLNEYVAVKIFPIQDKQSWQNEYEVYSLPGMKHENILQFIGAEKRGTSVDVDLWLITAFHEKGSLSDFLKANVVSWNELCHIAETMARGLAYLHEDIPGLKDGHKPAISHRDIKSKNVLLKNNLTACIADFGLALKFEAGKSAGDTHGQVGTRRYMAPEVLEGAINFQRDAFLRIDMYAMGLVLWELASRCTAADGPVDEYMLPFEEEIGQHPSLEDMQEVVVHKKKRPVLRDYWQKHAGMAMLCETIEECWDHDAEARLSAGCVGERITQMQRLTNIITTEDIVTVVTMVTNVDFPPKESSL
Outline: as §1

RET(V804M) = biological target: T18, RET(V804M) (Homo sapiens, UniProt P07949, V804M)
T18 construct: host or cells: E. coli host derived from BL21, T7 phage display
Outline: as §1

EPHA3 = biological target: T19, EPHA3 (Homo sapiens, UniProt P29320)
T19 construct: purchased Ambit Biosciences Corp; host or cells: T7 phage in E. coli host derived from BL21
Outline: as §1

TIE2 = biological target: T20, TIE2 (Homo sapiens, UniProt Q02763)
T20 construct: host or cells: E. coli host derived from BL21, T7 phage
Outline: as §1

ALK = biological target: T21, ALK (Homo sapiens, UniProt Q9UM73)
T21 construct: host or cells: E. coli (BL21-derived), T7 phage lysate
T21 sequence (Q9UM73 19-1620): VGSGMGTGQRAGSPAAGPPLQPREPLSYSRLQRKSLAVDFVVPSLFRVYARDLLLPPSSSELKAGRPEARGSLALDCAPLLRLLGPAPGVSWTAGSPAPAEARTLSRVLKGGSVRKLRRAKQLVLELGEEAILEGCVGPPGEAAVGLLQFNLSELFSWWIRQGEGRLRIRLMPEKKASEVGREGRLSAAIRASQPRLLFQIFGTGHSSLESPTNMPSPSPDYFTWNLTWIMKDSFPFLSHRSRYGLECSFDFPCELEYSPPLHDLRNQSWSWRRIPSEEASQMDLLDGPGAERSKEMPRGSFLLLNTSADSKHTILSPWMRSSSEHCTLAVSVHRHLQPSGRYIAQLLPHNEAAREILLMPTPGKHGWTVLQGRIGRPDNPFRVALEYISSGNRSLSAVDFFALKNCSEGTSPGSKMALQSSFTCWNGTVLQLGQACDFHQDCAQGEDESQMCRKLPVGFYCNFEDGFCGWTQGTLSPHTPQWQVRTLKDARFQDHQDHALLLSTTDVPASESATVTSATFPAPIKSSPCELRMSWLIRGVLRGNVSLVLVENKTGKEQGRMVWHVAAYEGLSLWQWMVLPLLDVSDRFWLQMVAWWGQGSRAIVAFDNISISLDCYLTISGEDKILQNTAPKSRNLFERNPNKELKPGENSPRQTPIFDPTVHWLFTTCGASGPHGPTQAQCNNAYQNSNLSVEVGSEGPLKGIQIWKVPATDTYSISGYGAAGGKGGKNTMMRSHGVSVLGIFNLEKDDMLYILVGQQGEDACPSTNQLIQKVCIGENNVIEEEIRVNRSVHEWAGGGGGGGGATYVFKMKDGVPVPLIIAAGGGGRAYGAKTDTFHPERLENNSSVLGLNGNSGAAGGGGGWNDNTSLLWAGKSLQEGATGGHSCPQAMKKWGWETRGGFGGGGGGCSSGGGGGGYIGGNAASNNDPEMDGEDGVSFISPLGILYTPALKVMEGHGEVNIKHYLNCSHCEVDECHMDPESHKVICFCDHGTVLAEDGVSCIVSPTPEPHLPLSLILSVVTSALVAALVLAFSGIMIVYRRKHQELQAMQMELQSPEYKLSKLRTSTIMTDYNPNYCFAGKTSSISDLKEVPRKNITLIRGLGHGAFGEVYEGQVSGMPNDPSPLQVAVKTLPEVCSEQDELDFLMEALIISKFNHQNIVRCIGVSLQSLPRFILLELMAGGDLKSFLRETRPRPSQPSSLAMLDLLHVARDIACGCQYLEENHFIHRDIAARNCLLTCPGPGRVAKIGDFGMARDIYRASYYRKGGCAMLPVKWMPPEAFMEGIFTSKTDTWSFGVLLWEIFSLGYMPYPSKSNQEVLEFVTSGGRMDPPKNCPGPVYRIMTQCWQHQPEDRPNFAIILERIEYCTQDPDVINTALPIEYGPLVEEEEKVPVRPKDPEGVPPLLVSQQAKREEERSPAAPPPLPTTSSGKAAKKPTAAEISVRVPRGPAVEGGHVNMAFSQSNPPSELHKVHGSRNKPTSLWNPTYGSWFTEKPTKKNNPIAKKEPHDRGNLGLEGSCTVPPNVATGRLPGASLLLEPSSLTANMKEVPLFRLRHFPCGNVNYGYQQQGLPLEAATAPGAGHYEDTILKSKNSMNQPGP
Outline: as §1

[2] = biological target: T22, RPS6KA4(Kin.Dom.-1-N-terminal) (Homo sapiens, UniProt O75676)
T22 construct: RPS6KA4(Kin.Dom.-1-N-terminal); host or cells: E. coli host derived from BL21, T7 phage display
Outline: as §1

EPHA8 = biological target: T23, EPHA8 (Homo sapiens, UniProt P29322)
T23 construct: purchased Ambit Biosciences Corp; host or cells: T7 phage in E. coli host derived from BL21
Outline: as §1

PAK1 = biological target: T24, PAK1 (Homo sapiens, UniProt Q13153)
T24 construct: host or cells: E. coli host derived from BL21, infected with T7 phage
Outline: as §1

PYK2 = biological target: T25, PYK2 (Homo sapiens, UniProt Q14289)
T25 construct: host or cells: E. coli host derived from BL21, T7 phage display
Outline: as §1

CIT = biological target: T26, CIT (Homo sapiens, UniProt O14578)
T26 construct: host or cells: T7 phage in E. coli host derived from BL21
Outline: as §1

TRKC = biological target: T27, TRKC (Homo sapiens, UniProt Q16288)
T27 construct: host or cells: E. coli host derived from BL21, T7 phage
Outline: as §1

PRKCH = biological target: T28, PRKCH (Homo sapiens, UniProt P24723)
T28 construct: host or cells: T7 phage in E. coli host derived from BL21
T28 sequence (P24723 whole entry): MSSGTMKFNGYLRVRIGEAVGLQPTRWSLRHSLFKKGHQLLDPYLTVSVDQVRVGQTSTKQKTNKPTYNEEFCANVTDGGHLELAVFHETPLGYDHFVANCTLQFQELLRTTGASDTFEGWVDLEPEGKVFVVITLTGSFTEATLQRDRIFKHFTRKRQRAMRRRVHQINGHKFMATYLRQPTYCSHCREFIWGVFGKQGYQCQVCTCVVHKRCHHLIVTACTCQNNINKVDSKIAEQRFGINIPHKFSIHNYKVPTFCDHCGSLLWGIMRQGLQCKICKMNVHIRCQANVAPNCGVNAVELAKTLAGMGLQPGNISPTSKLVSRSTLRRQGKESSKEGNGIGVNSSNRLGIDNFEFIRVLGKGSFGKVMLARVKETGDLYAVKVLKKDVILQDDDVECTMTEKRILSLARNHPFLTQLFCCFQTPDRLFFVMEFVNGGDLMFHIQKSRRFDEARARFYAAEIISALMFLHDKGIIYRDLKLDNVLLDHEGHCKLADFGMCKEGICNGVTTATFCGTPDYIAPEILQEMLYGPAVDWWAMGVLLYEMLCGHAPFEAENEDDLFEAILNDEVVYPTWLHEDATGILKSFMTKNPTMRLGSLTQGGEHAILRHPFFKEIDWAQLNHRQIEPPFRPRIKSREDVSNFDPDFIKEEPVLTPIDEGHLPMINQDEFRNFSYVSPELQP
Outline: as §1

SgK110 = biological target: T29, SgK110 (Homo sapiens, UniProt P0C264)
T29 construct: host or cells: T7 phage grown in E. coli (BL21-derived)
Outline: as §1

ERK3 = biological target: T30, ERK3 (Homo sapiens, UniProt Q16659)
T30 construct: purchased Ambit Biosciences Corp; host or cells: T7 phage in E. coli host derived from BL21
Outline: as §1

RET(V804L) = biological target: T31, RET(V804L) (Homo sapiens, UniProt P07949, V804L)
T31 construct: host or cells: E. coli host derived from BL21, T7 phage display
Outline: as §1

MST3 = biological target: T32, MST3 (Homo sapiens, UniProt Q9Y6E0)
T32 construct: host or cells: T7 phage grown in E. coli host derived from BL21
Outline: as §1

SMILES: C#Cc1cccc(Nc2ncnc3cc(OC)c(OCCCN4CCOCC4)cc23)c1 [NRC-2694, N-(3-ethynylphenyl)-7-methoxy-6-[3-(4-morpholinyl)propoxy]-4-quinazolinamine]
- remaining binding at 10 µM (MAPKAPK2): 90%
- remaining binding at 10 µM [1]: 15%
- remaining binding at 10 µM (MKNK2): 16%
- remaining binding at 10 µM (FGFR3(G697C)): 82%
- remaining binding at 10 µM (FER): 94%
- remaining binding at 10 µM (VEGFR2): 95%
- remaining binding at 10 µM (AKT3): 66%
- remaining binding at 10 µM (p38-delta): 100%
- remaining binding at 10 µM (TLK2): 82%
- remaining binding at 10 µM (SRPK2): 73%
- remaining binding at 10 µM (PCTK2): 72%
- remaining binding at 10 µM (MYO3A): 70%
- remaining binding at 10 µM (PRKG2): 40%
- remaining binding at 10 µM (GAK): 0.95%
- remaining binding at 10 µM (CAMK1G): 75%
- remaining binding at 10 µM (EGFR(S752-1759del)): 0%
- remaining binding at 10 µM (ACVR2A): 92%
- remaining binding at 10 µM (RET(V804M)): 100%
- remaining binding at 10 µM (EPHA3): 56%
- remaining binding at 10 µM (TIE2): 76%
- remaining binding at 10 µM (ALK): 10%
- remaining binding at 10 µM [2]: 84%
- remaining binding at 10 µM (EPHA8): 66%
- remaining binding at 10 µM (PAK1): 74%
- remaining binding at 10 µM (PYK2): 71%
- remaining binding at 10 µM (CIT): 5%
- remaining binding at 10 µM (TRKC): 80%
- remaining binding at 10 µM (PRKCH): 83%
- remaining binding at 10 µM (SgK110): 83%
- remaining binding at 10 µM (ERK3): 10%
- remaining binding at 10 µM (RET(V804L)): 81%
- remaining binding at 10 µM (MST3): 42%
